{"source": "patent US20180127374A1", "about": "“BE[…] AS OPIOID RECEPTORS MODULATORS” (Purdue Pharma L.P., priority 2012, published 2018)", "key": {"μ-opioid receptor [1]": {"target": "T1, μ-opioid receptor (Homo sapiens, UniProt P35372)", "assay": "μ-opioid receptor radioligand dose-displacement binding assay", "procedure": "Radioligand dose-displacement binding assays for μ-opioid receptors used 0.3 nM [^3H]-diprenorphine (Perkin Elmer, Shelton, Conn.), with […] membrane protein/well in a final volume of […] binding buffer (10 mM MgCl2, 1 mM EDTA, 5% DMSO, 50 mM HEPES, pH 7.4). Reactions were carried out in the absence or presence of increasing concentrations of unlabeled naloxone. All reactions were conducted in 96-deep well polypropylene plates for 2 hr at room temperature. […] The data were analyzed using the one-site competition curve fitting functions in GraphPad PRISM™ v. 3.0 or higher (San Diego, Calif.), or an in-house function for one-site competition curve-fitting."}, "κ opioid receptor [2]": {"target": "T2, κ opioid receptor (Homo sapiens, UniProt P41145)", "T2 sequence (P41145 whole entry)": "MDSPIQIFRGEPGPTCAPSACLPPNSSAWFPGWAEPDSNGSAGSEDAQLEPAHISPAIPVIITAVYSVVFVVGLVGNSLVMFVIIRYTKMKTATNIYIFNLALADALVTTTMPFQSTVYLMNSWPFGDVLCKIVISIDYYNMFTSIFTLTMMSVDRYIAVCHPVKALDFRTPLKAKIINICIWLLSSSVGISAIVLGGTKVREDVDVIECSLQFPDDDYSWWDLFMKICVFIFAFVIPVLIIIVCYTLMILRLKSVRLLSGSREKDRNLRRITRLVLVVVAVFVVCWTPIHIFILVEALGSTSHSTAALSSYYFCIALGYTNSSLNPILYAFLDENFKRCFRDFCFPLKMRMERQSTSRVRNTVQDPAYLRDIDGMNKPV", "assay": "κ-opioid receptor [35S]GTPγS functional assay", "type": "biochemical", "parameters": "expressed in transfected cells", "details": "for Emax: relative to the effect elicited by U69,593", "procedure": "Functional [^35S]GTPγS binding assays were conducted as follows. κ opioid receptor membrane solution was prepared by sequentially adding final concentrations of 0.026 μg/μl κ membrane protein (in-house), 10 μg/mL saponin, 3 μM GDP and 0.20 nM [^35S]GTPγS to binding buffer (100 mM NaCl, 10 mM MgCl2, 20 mM HEPES, pH 7.4) on ice. The prepared membrane solution (190 μl/well) was transferred to 96-shallow well polypropylene plates containing 10 μl of 20× concentrated stock solutions of agonist prepared in DMSO. Plates were incubated for 30 min at a temperature of about 25° C. with shaking.\nκ GTP EC50 is the concentration of a compound providing 50% of the maximal response for the compound at a κ receptor.\nκ GTP Emax (%) is the maximal effect elicited by a compound relative to the effect elicited by U69,593."}, "μ-opioid receptor [3]": {"target": "T1, μ-opioid receptor", "assay": "μ-opioid receptor [35S]GTPγS functional assay", "type": "biochemical", "parameters": "purchased Perkin Elmer, Shelton, Conn", "details": "for Emax: relative to the effect elicited by DAMGO", "procedure": "[^35S]GTPγS functional assays were conducted using freshly thawed μ-receptor membranes (Perkin Elmer, Shelton, Conn.). Assay reactions were prepared by sequentially adding the following reagents to binding buffer (100 mM NaCl, 10 mM MgCl2, 20 mM HEPES, pH 7.4) on ice (final concentrations indicated): membrane protein (0.026 mg/mL), saponin ([…]), GDP ([…]) and [^35S]GTPγS (0.20 nM; Perkin Elmer, Shelton, Conn.). The prepared membrane solution (190 μl/well) was transferred to 96-shallow well polypropylene plates containing 10 μI of 20× concentrated stock solutions of the agonist [D-Ala^e, N-methyl-Phe^4 Gly-ol^5]-enkephalin (DAMGO) prepared in dimethyl sulfoxide (DMSO). Plates were incubated for 30 min at about 25° C. with shaking. […] Data were analyzed using the sigmoidal dose-response curve fitting functions in GraphPad PRISM v. 3.0, or an in-house function for non-linear, sigmoidal dose-response curve-fitting.\nμ GTP EC50 is the concentration of a compound providing 50% of the maximal response for the compound at a μ-opioid receptor.\nμ GTP Emax (%) is the maximal effect elicited by a compound relative to the effect elicited by DAMGO, a standard μ agonist. Generally, the μ GTP Emax (%) value measures the efficacy of a compound to treat or prevent pain or other Conditions."}, "κ opioid receptor [4]": {"target": "T2, κ opioid receptor", "assay": "κ-opioid receptor radioligand dose displacement binding assay", "parameters": "expressed in transfected cells; host or cells: HEK-293", "procedure": "Membranes from recombinant HEK-293 cells expressing the human κ opioid receptor (κ) (cloned in house) were prepared by lysing cells in ice cold hypotonic buffer (2.5 mM MgCl2, 50 mM HEPES, pH 7.4) (10 mL/10 cm dish) followed by homogenization with a tissue grinder/Teflon pestle. Membranes were collected by centrifugation at 30,000×g for 15 min at 4° C. and pellets were resuspended in hypotonic buffer to a final concentration of 1-3 mg/mL. Protein concentrations were determined using the BioRad protein assay reagent with bovine serum albumen as standard. Aliquots of κ receptor membranes were stored at […]"}, "δ opioid receptor": {"target": "δ opioid receptor (Homo sapiens, UniProt P41143)", "sequence (P41143 whole entry)": "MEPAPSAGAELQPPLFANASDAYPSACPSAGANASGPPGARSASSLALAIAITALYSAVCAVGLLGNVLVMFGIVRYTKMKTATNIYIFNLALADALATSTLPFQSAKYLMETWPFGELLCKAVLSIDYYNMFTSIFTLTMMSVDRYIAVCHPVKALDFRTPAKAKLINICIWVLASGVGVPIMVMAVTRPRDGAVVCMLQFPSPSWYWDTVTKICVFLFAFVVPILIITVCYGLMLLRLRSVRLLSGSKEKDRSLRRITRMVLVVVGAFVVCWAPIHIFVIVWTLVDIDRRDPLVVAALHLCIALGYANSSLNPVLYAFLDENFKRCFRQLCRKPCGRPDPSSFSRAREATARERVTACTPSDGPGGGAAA", "assay": "δ-opioid receptor radioligand dose-displacement binding assay", "protocol": "δ-opioid Receptor Binding Assay Procedures were conducted as follows. Radioligand dose-displacement assays used 0.3 nM [^3H]-Naltrindole (Perkin Elmer, Shelton, Conn.; 33.0 Ci/mmole) with 5 μg membrane protein (Perkin Elmer, Shelton, Conn.) in a final volume of 500 μl binding buffer (5 mM MgCl2, 5% DMSO, 50 mM Trizma base, pH 7.4). Non-specific binding was determined in the presence of 25 μM unlabeled naloxone. All reactions were performed in 96-deep well polypropylene plates for 1 hr at a temperature of about 25° C. Binding reactions were terminated by rapid filtration onto 96-well Unifilter GF/C filter plates (Perkin Elmer, Shelton, Conn.) presoaked in 0.5% polyethylenimine (Sigma). Harvesting was performed using a 96-well tissue harvester (Perkin Elmer, Shelton, Conn.) followed by five filtration washes with 500 μl ice-cold binding buffer. Filter plates were subsequently dried at 50° C. for 1-2 hours. Fifty μl/well scintillation cocktail (Perkin Elmer, Shelton, Conn.) was added and plates were counted in a Packard Top-Count for 1 min/well."}, "[5]": {"details": "[3H]-diprenorphine displacement, read-out: Ki (nM) Opioid Receptor μ"}, "[6]": {"details": "κ membrane protein (in-house), read-out: GTPγS κ EC50"}, "[7]": {"details": "μ-receptor membranes, μM, read-out: GTPγS μ EC50"}, "[8]": {"details": "[3H]-U69,593 displacement, HEK-293 membranes, read-out: Ki (nM) Opioid Receptor κ"}, "[9]": {"details": "μ-receptor membranes, read-out: GTPγS μ EC50"}}, "note": "Read-outs that look alike come from different tables or passages of the source.", "data": [{"molecule": "COc1ccc2c(c1)[C@@]1(C[C@H](O)CO)CCN(CC3CC3)C(C2)[C@@H]1C", "note": "[Compound 6, (2S)-3-((6R,11R)-3-(cyclopropylmethyl)-8-methoxy-11-methyl-1,2,3,4,5,6-hexahydro-2,6-methanobenzo[d]azocin-6-yl)propane-1,2-diol]", "values": [{"measurement": "Ki", "setting": "μ-opioid receptor [1]", "value": "3340 ± 895", "unit": "nM"}, {"measurement": "EC50", "setting": "κ opioid receptor [2]", "value": 3090, "unit": "nM"}, {"measurement": "Emax", "setting": "κ opioid receptor [2]", "value": 69.3, "unit": "%"}, {"measurement": "EC50", "setting": "μ-opioid receptor [3]", "value": "> 20", "unit": "µM"}, {"measurement": "Ki", "setting": "κ opioid receptor [4]", "value": "46.4 ± 9.7", "unit": "nM"}]}, {"molecule": "COc1ccc2c(c1)[C@@]1(CCCC(=O)O)CCN(CC3CC3)C(C2)[C@@H]1C", "note": "[Compound 3, 4-((6S,11R)-3-(cyclopropylmethyl)-8-methoxy-11-methyl-1,2,3,4,5,6-hexahydro-2,6-methanobenzo[d]azocin-6-yl)butanoic acid]", "values": [{"measurement": "Ki", "setting": "μ-opioid receptor [1]; [5]", "value": "1110 ± 32.6", "unit": "nM"}, {"measurement": "Emax", "setting": "κ opioid receptor [2]", "value": 80.7, "unit": "%"}, {"measurement": "EC50", "setting": "κ opioid receptor [2]; [6]", "value": 3470, "unit": "nM"}, {"measurement": "EC50", "setting": "μ-opioid receptor [3]; [7]", "value": "> 20", "unit": "µM"}, {"measurement": "Ki", "setting": "κ opioid receptor [4]; [8]", "value": "137 ± 41.9", "unit": "nM"}]}, {"molecule": "COC(=O)/C=C/C[C@@]12CCN(CC3CC3)C(Cc3ccc(OC)cc31)[C@@H]2C", "note": "[Compound 8, (E)-methyl 4-((6S,11R)-3-(cyclopropylmethyl)-8-methoxy-11-methyl-1,2,3,4,5,6-hexahydro-2,6-methanobenzo[d]azocin-6-yl)but-2-enoate]", "values": [{"measurement": "Ki", "setting": "μ-opioid receptor [1]; [5]", "value": "1810 ± 553", "unit": "nM"}, {"measurement": "Emax", "setting": "κ opioid receptor [2]", "value": 99.3, "unit": "%"}, {"measurement": "EC50", "setting": "κ opioid receptor [2]; [6]", "value": 123, "unit": "nM"}, {"measurement": "Emax", "setting": "μ-opioid receptor [3]", "value": 46.3, "unit": "%"}, {"measurement": "EC50", "setting": "μ-opioid receptor [3]; [9]", "value": 0.562, "unit": "µM"}, {"measurement": "Ki", "setting": "κ opioid receptor [4]; [8]", "value": "3.21 ± 0.76", "unit": "nM"}]}, {"molecule": "C[C@H]1C2Cc3ccc(O)cc3[C@@]1(CCCC(=O)O)CCN2CC1CC1", "note": "[Compound 4, 4-((6S,11R)-3-(cyclopropylmethyl)-8-hydroxy-11-methyl-1,2,3,4,5,6-hexahydro-2,6-methanobenzo[d]azocin-6-yl)butanoic acid]", "values": [{"measurement": "Ki", "setting": "μ-opioid receptor [1]; [5]", "value": "7.61 ± 2.44", "unit": "nM"}, {"measurement": "Emax", "setting": "κ opioid receptor [2]", "value": 67.3, "unit": "%"}, {"measurement": "EC50", "setting": "κ opioid receptor [2]; [6]", "value": 24.8, "unit": "nM"}, {"measurement": "EC50", "setting": "μ-opioid receptor [3]; [7]", "value": "> 20", "unit": "µM"}, {"measurement": "Ki", "setting": "κ opioid receptor [4]; [8]", "value": "2.52 ± 0.23", "unit": "nM"}]}, {"molecule": "COc1ccc2c(c1)[C@@]1(CCCC(=O)N[C@@H](C)C(N)=O)CCN(CC3CC3)C(C2)[C@@H]1C", "note": "[Compound 14, N—((S)-1-amino-1-oxopropan-2-yl)-4-((6S,11R)-3-(cyclopropylmethyl)-8-methoxy-11-methyl-1,2,3,4,5,6-hexahydro-2,6-methanobenzo[d]azocin-6-yl)butanamide]", "values": [{"measurement": "Ki", "setting": "μ-opioid receptor [1]; [5]", "value": "4270 ± 1360", "unit": "nM"}, {"measurement": "Emax", "setting": "κ opioid receptor [2]", "value": 63, "unit": "%"}, {"measurement": "EC50", "setting": "κ opioid receptor [2]; [6]", "value": 1050, "unit": "nM"}, {"measurement": "Emax", "setting": "μ-opioid receptor [3]", "value": 64, "unit": "%"}, {"measurement": "EC50", "setting": "μ-opioid receptor [3]; [9]", "value": 1.3, "unit": "µM"}, {"measurement": "Ki", "setting": "κ opioid receptor [4]; [8]", "value": "44 ± 17.7", "unit": "nM"}]}, {"molecule": "COc1ccc2c(c1)[C@@]1(CCCCO)CCN(CC3CC3)C(C2)[C@@H]1C", "note": "[Compound 13, 4-((6S,11R)-3-(cyclopropylmethyl)-8-methoxy-11-methyl-1,2,3,4,5,6-hexahydro-2,6-methanobenzo[d]azocin-6-yl)butan-1-ol]", "values": [{"measurement": "Ki", "setting": "μ-opioid receptor [1]", "value": "3420 ± 763", "unit": "nM"}, {"measurement": "EC50", "setting": "κ opioid receptor [2]", "value": 296, "unit": "nM"}, {"measurement": "Emax", "setting": "κ opioid receptor [2]", "value": 71.3, "unit": "%"}, {"measurement": "Ki", "setting": "κ opioid receptor [4]", "value": "7.15 ± 0.86", "unit": "nM"}, {"measurement": "Ki", "setting": "δ opioid receptor", "value": "16200 ± 3050", "unit": "nM"}]}, {"molecule": "COc1ccc2c(c1)[C@@]1(CCCCNCC(C)C)CCN(CC3CC3)C(C2)[C@@H]1C", "note": "[Compound 9, 4-((6S,11R)-3-(cyclopropylmethyl)-8-methoxy-11-methyl-1,2,3,4,5,6-hexahydro-2,6-methanobenzo[d]azocin-6-yl)-N-isobutylbutan-1-amine]", "values": [{"measurement": "Ki", "setting": "μ-opioid receptor [1]; [5]", "value": "448 ± 113", "unit": "nM"}, {"measurement": "Emax", "setting": "κ opioid receptor [2]", "value": 103, "unit": "%"}, {"measurement": "EC50", "setting": "κ opioid receptor [2]; [6]", "value": 58.1, "unit": "nM"}, {"measurement": "Emax", "setting": "μ-opioid receptor [3]", "value": 60, "unit": "%"}, {"measurement": "EC50", "setting": "μ-opioid receptor [3]; [9]", "value": 0.643, "unit": "µM"}, {"measurement": "Ki", "setting": "κ opioid receptor [4]; [8]", "value": "1.35 ± 0.57", "unit": "nM"}]}, {"molecule": "C[C@H](NC(=O)CCC[C@]12CCN(CC3CC3)[C@H](Cc3ccc(O)cc31)[C@@H]2C)C(N)=O", "note": "[Compound 22, N—((S)-1-amino-1-oxopropan-2-yl)-4-((2R,6R,11R)-3-(cyclopropylmethyl)-8-hydroxy-11-methyl-1,2,3,4,5,6-hexahydro-2,6-methanobenzo[d]azocin-6-yl)butanamide]", "values": [{"measurement": "Ki", "setting": "μ-opioid receptor [1]; [5]", "value": "6.33 ± 1.54", "unit": "nM"}, {"measurement": "Emax", "setting": "κ opioid receptor [2]", "value": 53.3, "unit": "%"}, {"measurement": "EC50", "setting": "κ opioid receptor [2]; [6]", "value": 13.2, "unit": "nM"}, {"measurement": "Emax", "setting": "μ-opioid receptor [3]", "value": 22.3, "unit": "%"}, {"measurement": "EC50", "setting": "μ-opioid receptor [3]; [9]", "value": 0.0007, "unit": "µM"}, {"measurement": "Ki", "setting": "κ opioid receptor [4]; [8]", "value": "0.41 ± 0.08", "unit": "nM"}]}]}
